# Experimental data from patent US6638973B2, “Taxane formulations” (FSU Research Foundation, Inc., priority 2000, dated 2003).
# Test system: HCT116 cells
# Assay: In vitro cytotoxicity measured by the cell colony formation assay
# Type: cell-based
# Conditions: HCT116 cells, 72 h incubation with drug, colonies counted after 7 days; ID50 = drug concentration producing 50% inhibition of colony formation; read-out: IN VITRO ID 50 (nm) HCT116
# Method in brief: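 Colony-forming survival was scored 7 days after a 72 h, 37 °C compound exposure followed by washout into fresh medium.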
row,Structure (SMILES),IC50
1,CCOC(=O)O[C@H]1C(=O)[C@@]2(C)C([C@H](OC(=O)c3ccccc3)[C@]3(O)C[C@H](OC(=O)[C@H](O)[C@@H](NC(=O)c4ccco4)c4ccco4)C(C)=C1C3(C)C)[C@]1(OC(C)=O)CO[C@@H]1C[C@@H]2O (some centres unmarked) [Compound 3911],< 1 nM
2,CCCC(=O)N[C@@H](c1ccco1)[C@@H](O)C(=O)O[C@H]1C[C@@]2(O)[C@@H](OC(=O)c3ccccc3)C3[C@](C)(C(=O)[C@H](OC(=O)OCC)C(=C1C)C2(C)C)[C@@H](O)C[C@H]1OC[C@@]31OC(C)=O (some centres unmarked) [Compound 3929],< 1 nM
3,CCOC(=O)O[C@H]1C(=O)[C@@]2(C)C([C@H](OC(=O)c3ccccc3)[C@]3(O)C[C@H](OC(=O)[C@H](O)[C@@H](NC(=O)OC(C)C)c4ccco4)C(C)=C1C3(C)C)[C@]1(OC(C)=O)CO[C@@H]1C[C@@H]2O (some centres unmarked) [Compound 3963],< 1 nM
4,CC=CC(=O)NC(c1ccco1)C(O)C(=O)OC1CC2(O)C(OC(=O)c3ccccc3)C3C4(OC(C)=O)COC4CC(O)C3(C)C(=O)C(OC(=O)OCC)C(=C1C)C2(C)C (centres unmarked) [Compound 4000],< 1 nM
5,CCOC(=O)N[C@@H](c1ccco1)[C@@H](O)C(=O)O[C@H]1C[C@@]2(O)[C@@H](OC(=O)c3ccccc3)C3[C@](C)(C(=O)[C@H](OC(=O)OCC)C(=C1C)C2(C)C)[C@@H](O)C[C@H]1OC[C@@]31OC(C)=O (some centres unmarked) [Compound 4020],< 1 nM
6,CCOC(=O)O[C@H]1C(=O)[C@@]2(C)C([C@H](OC(=O)c3ccccc3)[C@]3(O)C[C@H](OC(=O)[C@H](O)[C@@H](NC(=O)c4cccs4)c4ccco4)C(C)=C1C3(C)C)[C@]1(OC(C)=O)CO[C@@H]1C[C@@H]2O (some centres unmarked) [Compound 4088],< 10 nM

# Same assay, conditions: HCT116 colony formation; 72 h drug incubation, colonies counted after 7 days; Example 5, C-7 ester/C-10 hydroxy taxanes; read-out: IN VITRO ID 50 (nm) HCT116
row,Structure (SMILES),IC50
1,C/C=C/C(=O)N[C@@H](c1cccs1)[C@@H](O)C(=O)O[C@H]1C[C@@]2(O)[C@@H](OC(=O)c3ccccc3)C3[C@](C)(C(=O)[C@H](O)C(=C1C)C2(C)C)[C@@H](OC(=O)CC)C[C@H]1OC[C@@]31OC(C)=O (some centres unmarked) [Compound 3560],< 1 nM
2,CCOC(=O)N[C@@H](c1ccco1)[C@@H](O)C(=O)O[C@H]1C[C@@]2(O)[C@@H](OC(=O)c3ccccc3)C3[C@](C)(C(=O)[C@H](O)C(=C1C)C2(C)C)[C@@H](OC(=O)CC)C[C@H]1OC[C@@]31OC(C)=O (some centres unmarked) [Compound 3611],< 1 nM
3,CCC(=O)O[C@H]1C[C@H]2OC[C@@]2(OC(C)=O)C2[C@H](OC(=O)c3ccccc3)[C@]3(O)C[C@H](OC(=O)[C@H](O)[C@@H](NC(=O)c4ccco4)c4ccco4)C(C)=C([C@@H](O)C(=O)[C@@]21C)C3(C)C (some centres unmarked) [Compound 3629],< 1 nM
4,CCC(=O)O[C@H]1C[C@H]2OC[C@@]2(OC(C)=O)C2[C@H](OC(=O)c3ccccc3)[C@]3(O)C[C@H](OC(=O)[C@H](O)[C@@H](NC(=O)c4cccs4)c4ccco4)C(C)=C([C@@H](O)C(=O)[C@@]21C)C3(C)C (some centres unmarked) [Compound 3632],< 1 nM
5,C/C=C/C(=O)N[C@@H](c1ccco1)[C@@H](O)C(=O)O[C@H]1C[C@@]2(O)[C@@H](OC(=O)c3ccccc3)C3[C@](C)(C(=O)[C@H](O)C(=C1C)C2(C)C)[C@@H](OC(=O)CC)C[C@H]1OC[C@@]31OC(C)=O (some centres unmarked) [Compound 3708],< 1 nM
6,CCC(=O)O[C@H]1C[C@H]2OC[C@@]2(OC(C)=O)C2[C@H](OC(=O)c3ccccc3)[C@]3(O)C[C@H](OC(=O)[C@H](O)[C@@H](NC(=O)c4ccccc4)c4ccco4)C(C)=C([C@@H](O)C(=O)[C@@]21C)C3(C)C (some centres unmarked) [Compound 4017],< 10 nM
7,CCOC(=O)N[C@@H](c1cccs1)[C@@H](O)C(=O)O[C@H]1C[C@@]2(O)[C@@H](OC(=O)c3ccccc3)C3[C@](C)(C(=O)[C@H](O)C(=C1C)C2(C)C)[C@@H](OC(=O)CC)C[C@H]1OC[C@@]31OC(C)=O (some centres unmarked) [Compound 4044],< 1 nM
8,CCC(=O)O[C@H]1C[C@H]2OC[C@@]2(OC(C)=O)C2[C@H](OC(=O)c3ccccc3)[C@]3(O)C[C@H](OC(=O)[C@H](O)[C@@H](NC(=O)c4cccnc4)c4cccs4)C(C)=C([C@@H](O)C(=O)[C@@]21C)C3(C)C (some centres unmarked) [Compound 4106],< 10 nM

# Same assay, conditions: HCT116 colony formation; 72 h drug incubation, colonies counted after 7 days; Example 10, C-10 ester/C-7 hydroxy taxanes; read-out: IN VITRO ID 50 (nm) HCT116
row,Structure (SMILES),IC50
1,C/C=C/C(=O)N[C@@H](c1cccs1)[C@@H](O)C(=O)O[C@H]1C[C@@]2(O)[C@@H](OC(=O)c3ccccc3)C3[C@](C)(C(=O)[C@H](OC(=O)C4CC4)C(=C1C)C2(C)C)[C@@H](O)C[C@H]1OC[C@@]31OC(C)=O (some centres unmarked) [Compound 3513],< 1 nM
2,CCC(=O)O[C@H]1C(=O)[C@@]2(C)C([C@H](OC(=O)c3ccccc3)[C@]3(O)C[C@H](OC(=O)[C@H](O)[C@@H](NC(=O)OC(C)C)c4ccco4)C(C)=C1C3(C)C)[C@]1(OC(C)=O)CO[C@@H]1C[C@@H]2O (some centres unmarked) [Compound 3522],< 1 nM
3,CCOC(=O)N[C@@H](c1ccco1)[C@@H](O)C(=O)O[C@H]1C[C@@]2(O)[C@@H](OC(=O)c3ccccc3)C3[C@](C)(C(=O)[C@H](OC(=O)CC)C(=C1C)C2(C)C)[C@@H](O)C[C@H]1OC[C@@]31OC(C)=O (some centres unmarked) [Compound 3535],< 1 nM
4,C/C=C/C(=O)N[C@@H](c1cccs1)[C@@H](O)C(=O)O[C@H]1C[C@@]2(O)[C@@H](OC(=O)c3ccccc3)C3[C@](C)(C(=O)[C@H](OC(=O)CCC)C(=C1C)C2(C)C)[C@@H](O)C[C@H]1OC[C@@]31OC(C)=O (some centres unmarked) [Compound 3595],< 1 nM
5,CCC(=O)O[C@H]1C(=O)[C@@]2(C)C([C@H](OC(=O)c3ccccc3)[C@]3(O)C[C@H](OC(=O)[C@H](O)[C@@H](NC(=O)c4cccs4)c4ccco4)C(C)=C1C3(C)C)[C@]1(OC(C)=O)CO[C@@H]1C[C@@H]2O (some centres unmarked) [Compound 3644],< 1 nM
6,CCCC(=O)O[C@H]1C(=O)[C@@]2(C)C([C@H](OC(=O)c3ccccc3)[C@]3(O)C[C@H](OC(=O)[C@H](O)[C@@H](NC(=O)c4cccs4)c4ccco4)C(C)=C1C3(C)C)[C@]1(OC(C)=O)CO[C@@H]1C[C@@H]2O (some centres unmarked) [Compound 3656],< 1 nM
7,CC(=O)O[C@@]12CO[C@@H]1C[C@H](O)[C@@]1(C)C(=O)[C@H](OC(=O)C3CC3)C3=C(C)[C@@H](OC(=O)[C@H](O)[C@@H](NC(=O)c4cccs4)c4ccco4)C[C@@](O)([C@@H](OC(=O)c4ccccc4)C12)C3(C)C (some centres unmarked) [Compound 3663],< 1 nM
8,CCOC(=O)N[C@@H](c1ccco1)[C@@H](O)C(=O)O[C@H]1C[C@@]2(O)[C@@H](OC(=O)c3ccccc3)C3[C@](C)(C(=O)[C@H](OC(=O)C4CC4)C(=C1C)C2(C)C)[C@@H](O)C[C@H]1OC[C@@]31OC(C)=O (some centres unmarked) [Compound 3677],< 1 nM
9,CCCC(=O)O[C@H]1C(=O)[C@@]2(C)C([C@H](OC(=O)c3ccccc3)[C@]3(O)C[C@H](OC(=O)[C@H](O)[C@@H](NC(=O)c4ccco4)c4ccco4)C(C)=C1C3(C)C)[C@]1(OC(C)=O)CO[C@@H]1C[C@@H]2O (some centres unmarked) [Compound 3686],< 1 nM
10,CCCC(=O)O[C@H]1C(=O)[C@@]2(C)C([C@H](OC(=O)c3ccccc3)[C@]3(O)C[C@H](OC(=O)[C@H](O)[C@@H](NC(=O)OCC)c4ccco4)C(C)=C1C3(C)C)[C@]1(OC(C)=O)CO[C@@H]1C[C@@H]2O (some centres unmarked) [Compound 3693],< 1 nM
11,CCC(=O)O[C@H]1C(=O)[C@@]2(C)C([C@H](OC(=O)c3ccccc3)[C@]3(O)C[C@H](OC(=O)[C@H](O)[C@@H](NC(=O)c4ccco4)c4ccco4)C(C)=C1C3(C)C)[C@]1(OC(C)=O)CO[C@@H]1C[C@@H]2O (some centres unmarked) [Compound 3818],< 1 nM
12,CC(=O)O[C@@]12CO[C@@H]1C[C@H](O)[C@@]1(C)C(=O)[C@H](OC(=O)C3CC3)C3=C(C)[C@@H](OC(=O)[C@H](O)[C@@H](NC(=O)OC(C)C)c4ccco4)C[C@@](O)([C@@H](OC(=O)c4ccccc4)C12)C3(C)C (some centres unmarked) [Compound 3853],< 1 nM
13,CC(=O)O[C@@]12CO[C@@H]1C[C@H](O)[C@@]1(C)C(=O)[C@H](OC(=O)C3CC3)C3=C(C)[C@@H](OC(=O)[C@H](O)[C@@H](NC(=O)c4ccco4)c4ccco4)C[C@@](O)([C@@H](OC(=O)c4ccccc4)C12)C3(C)C (some centres unmarked) [Compound 3866],< 1 nM
14,CCCC(=O)O[C@H]1C(=O)[C@@]2(C)C([C@H](OC(=O)c3ccccc3)[C@]3(O)C[C@H](OC(=O)[C@H](O)[C@@H](NC(=O)OC(C)C)c4cccs4)C(C)=C1C3(C)C)[C@]1(OC(C)=O)CO[C@@H]1C[C@@H]2O (some centres unmarked) [Compound 3909],< 1 nM
15,CCCC(=O)O[C@H]1C(=O)[C@@]2(C)C([C@H](OC(=O)c3ccccc3)[C@]3(O)C[C@H](OC(=O)[C@H](O)[C@@H](NC(=O)OCC(C)C)c4ccco4)C(C)=C1C3(C)C)[C@]1(OC(C)=O)CO[C@@H]1C[C@@H]2O (some centres unmarked) [Compound 3957],< 10 nM
16,C/C=C/C(=O)N[C@@H](c1ccco1)[C@@H](O)C(=O)O[C@H]1C[C@@]2(O)[C@@H](OC(=O)c3ccccc3)C3[C@](C)(C(=O)[C@H](OC(=O)C4CC4)C(=C1C)C2(C)C)[C@@H](O)C[C@H]1OC[C@@]31OC(C)=O (some centres unmarked) [Compound 3971],< 1 nM
17,C/C=C/C(=O)N[C@@H](c1ccco1)[C@@H](O)C(=O)O[C@H]1C[C@@]2(O)[C@@H](OC(=O)c3ccccc3)C3[C@](C)(C(=O)[C@H](OC(=O)CC)C(=C1C)C2(C)C)[C@@H](O)C[C@H]1OC[C@@]31OC(C)=O (some centres unmarked) [Compound 3982],< 1 nM
18,C/C=C/C(=O)N[C@@H](c1ccco1)[C@@H](O)C(=O)O[C@H]1C[C@@]2(O)[C@@H](OC(=O)c3ccccc3)C3[C@](C)(C(=O)[C@H](OC(=O)CCC)C(=C1C)C2(C)C)[C@@H](O)C[C@H]1OC[C@@]31OC(C)=O (some centres unmarked) [Compound 3994],< 1 nM
19,CCOC(=O)N[C@@H](c1cccs1)[C@@H](O)C(=O)O[C@H]1C[C@@]2(O)[C@@H](OC(=O)c3ccccc3)C3[C@](C)(C(=O)[C@H](OC(=O)C4CC4)C(=C1C)C2(C)C)[C@@H](O)C[C@H]1OC[C@@]31OC(C)=O (some centres unmarked) [Compound 4051],< 1 nM
20,CCCC(=O)N[C@@H](c1ccco1)[C@@H](O)C(=O)O[C@H]1C[C@@]2(O)[C@@H](OC(=O)c3ccccc3)C3[C@](C)(C(=O)[C@H](OC(=O)C4CC4)C(=C1C)C2(C)C)[C@@H](O)C[C@H]1OC[C@@]31OC(C)=O (some centres unmarked) [Compound 4062],< 1 nM
21,CC(=O)O[C@@]12CO[C@@H]1C[C@H](O)[C@@]1(C)C(=O)[C@H](OC(=O)C3CC3)C3=C(C)[C@@H](OC(=O)[C@H](O)[C@@H](NC(=O)c4cccnc4)c4cccs4)C[C@@](O)([C@@H](OC(=O)c4ccccc4)C12)C3(C)C (some centres unmarked) [Compound 4112],< 10 nM
